Each structure is given as a SMILES string. Counter-ions that a name gives are not always drawn.

In patent US10494376B2, “Tetrahydroisoquinoline derived PRMT5-inhibitors” (CTXT PTY LTD, priority 2014, dated 2019) one finds IC50 data, which are given here for 28 molecules.

Sequence of Full-length PRMT5 enzyme (NCBI Reference sequence NP_006100.2) co-expressed with His6-MEP50 (O14744 whole entry): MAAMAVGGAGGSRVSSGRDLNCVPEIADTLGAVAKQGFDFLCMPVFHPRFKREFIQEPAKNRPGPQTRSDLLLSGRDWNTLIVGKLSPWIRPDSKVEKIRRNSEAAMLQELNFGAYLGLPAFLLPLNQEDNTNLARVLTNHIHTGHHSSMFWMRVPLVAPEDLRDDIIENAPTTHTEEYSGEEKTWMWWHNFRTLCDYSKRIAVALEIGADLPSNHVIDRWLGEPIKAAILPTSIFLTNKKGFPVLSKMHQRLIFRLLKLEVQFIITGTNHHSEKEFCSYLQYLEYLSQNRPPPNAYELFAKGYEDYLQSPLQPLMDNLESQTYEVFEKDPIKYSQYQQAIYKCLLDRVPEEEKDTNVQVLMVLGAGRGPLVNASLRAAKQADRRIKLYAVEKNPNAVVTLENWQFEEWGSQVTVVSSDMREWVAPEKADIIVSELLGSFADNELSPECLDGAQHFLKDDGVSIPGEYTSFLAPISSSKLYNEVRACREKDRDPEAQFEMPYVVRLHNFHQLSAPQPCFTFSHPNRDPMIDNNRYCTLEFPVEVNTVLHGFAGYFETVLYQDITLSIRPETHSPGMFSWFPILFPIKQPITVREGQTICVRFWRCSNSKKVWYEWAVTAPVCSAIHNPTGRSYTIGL
Sequence of Full-length PRMT5 enzyme (NCBI Reference sequence NP_006100.2) co-expressed with His6-MEP50 (Q9BQA1 whole entry partner): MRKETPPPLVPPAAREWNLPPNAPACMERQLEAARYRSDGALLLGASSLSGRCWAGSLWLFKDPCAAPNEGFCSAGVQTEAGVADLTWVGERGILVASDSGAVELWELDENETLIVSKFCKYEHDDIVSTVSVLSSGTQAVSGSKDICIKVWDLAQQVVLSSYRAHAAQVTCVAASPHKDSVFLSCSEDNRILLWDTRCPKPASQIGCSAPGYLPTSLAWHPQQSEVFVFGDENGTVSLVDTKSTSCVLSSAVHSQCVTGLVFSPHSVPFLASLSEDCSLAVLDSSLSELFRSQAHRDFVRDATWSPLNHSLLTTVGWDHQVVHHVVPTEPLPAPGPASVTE

This test has as its target Full-length PRMT5 enzyme (NCBI Reference sequence NP_006100.2) co-expressed with His6-MEP50 (Homo sapiens (Human), UniProt O14744). Description: Revised PRMT5 Biochemical Assay. As to conditions: 1 μM peptide substrate, 1 μM S-Adenosyl methionine, 4 hours at 37 degree Celsius, Transcreener EPIGEN fluorescence polarisation. The protocol: Compounds of the invention may be tested for in vitro activity in the following assay: A histone H4 derived peptide is used as substrate (amino acid sequence: […]N H2). Full-length PRMT5 enzyme (NCBI Reference sequence NP_006100.2) was co-expressed with His6-MEP50 in insect cells and purified via Nickel immobilized metal affinity and gel filtration chromatography (“the enzyme”).
The 6 μL reactions are run in Greiner brand black 384-well low volume assay plates. All reactions contained assay buffer (phosphate buffered saline, 0.01% (v/v) Tween-20, 0.01% (w/v) albumin from chicken egg white, 1 mM Dithiothreitol, 1 μM peptide substrate, 1 μM S-Adenosyl methionine, and 15 ng/reaction enzyme, with the enzyme being omitted from negative control reactions. Compounds were added in a volume of 100 nL from dilution series prepared in DMSO, positive and negative control reactions receiving the same volume DMSO without compound. The plates were sealed with adhesive seals and incubated for 4 hours at 37 degree Celsius. Reaction progress was measured using the Transcreener™ EPIGEN methyltransferase assay (BellBrook Labs, Madison, Wis.) as recommended by the manufacturer. To each reaction 2 μL detection mix were added, containing coupling enzymes, fluorescence polarisation tracer, and AMP antibody. Plates were incubated for 90 minutes before being read on a PerkinElmer EnVision™ plate reader in fluorescence polarisation mode. IC50 values were obtained from the raw readings by calculating percent inhibition (%1) for each reaction relative to controls on the same plate (% I=(I−CN)/(CP−CN) where CN/CP are the averages of the negative/positive reactions, respectively), then fitting the %1 data vs. compound concentration [I] to % I=(A+((B−A)/(1+((C/[I])^D)))) where A is the lower asymptote, B is the upper asymptote, C is the IC50 value, and D is the slope.
(In general: Polarisation of emitted light reports the rotation of a fluorescent probe.)
On to `CN1CCN(C(=O)c2ccc(C(=O)NC[C@@H](O)[C@@H]3Cc4ccccc4CN3)cc2)CC1=O` [Example 41, N-((R)-2-Hydroxy-2-((S)-1,2,3,4-tetrahydroisoquinolin-3-yl)ethyl)-4-(4-methyl-3-oxopiperazine-1-carbonyl)benzamide], for which it took 1390 nM to reach half-maximal inhibition (IC50).

Turning to `O=C(NC[C@@H](O)[C@@H]1Cc2ccccc2CN1)c1ccc(C(=O)N2C3CCC2CC(O)C3)cc1` (stereo partly drawn) [Example 42, N-((R)-2-Hydroxy-2-((S)-1,2,3,4-tetrahydroisoquinolin-3-yl)ethyl)-4-(3-hydroxy-8-azabicyclo[3.2.1]octane-8-carbonyl)benzamide], the IC50 – broadly, the point on the concentration scale where inhibition reaches its midpoint – amounted to 212 nM.

`O=C(NC[C@@H](O)[C@@H]1Cc2ccccc2CN1)c1ccc(C(=O)N2CCCC(O)C2)cc1` (stereo partly drawn) [Example 43, N-((R)-2-Hydroxy-2-((S)-1,2,3,4-tetrahydroisoquinolin-3-yl)ethyl)-4-(3-hydroxypiperidine-1-carbonyl)benzamide] had an IC50 of 967 nM.

The molecule `O=C(NC[C@@H](O)[C@@H]1Cc2ccccc2CN1)c1ccc(C(=O)NC2CCC(F)(F)CC2)cc1` [Example 44, N^1-(4,4-Difluorocyclohexyl)-N^4-((R)-2-hydroxy-2-((S)-1,2,3,4-tetrahydroisoquinolin-3-yl)ethyl)terephthalamide] returned an IC50 of 1240 nM.

With `O=C(NC[C@@H](O)[C@@H]1Cc2ccccc2CN1)c1ccc(C(=O)N2CCC(O)CC2)cc1` [Example 45, N-((R)-2-Hydroxy-2-((S)-1,2,3,4-tetrahydroisoquinolin-3-yl)ethyl)-4-(4-hydroxypiperidine-1-carbonyl)benzamide], the concentration for half-maximal inhibition (IC50) worked out at 500 nM.

`O=C(NC[C@@H](O)[C@@H]1Cc2ccccc2CN1)c1ccc(C(=O)N2CCC(C(F)F)CC2)cc1` [Example 46, 4-(4-(Difluoromethyl)piperidine-1-carbonyl)-N-((R)-2-hydroxy-2-((S)-1,2,3,4-tetrahydroisoquinolin-3-yl)ethyl)benzamide] gave an IC50 of 230 nM.

`O=C(NC[C@@H](O)[C@@H]1Cc2ccccc2CN1)c1ccc(C(=O)N2CCC(O)C2)cc1` (stereo partly drawn) [Example 47, N-((R)-2-Hydroxy-2-((S)-1,2,3,4-tetrahydroisoquinolin-3-yl)ethyl)-4-(3-hydroxypyrrolidine-1-carbonyl)benzamide] registered an IC50 of 3370 nM.

Molecule `O=C(NC[C@@H](O)[C@@H]1Cc2ccccc2CN1)c1ccc(Cl)cc1` [Example 48, 4-Chloro-N—((R)-2-hydroxy-2-((S)-1,2,3,4-tetrahydroisoquinolin-3-yl)ethyl)benzamide] came in with a half-inhibitory concentration (IC50) of 192 nM.

For the molecule `O=C(NC[C@H](O)[C@@H]1Cc2ccccc2CN1)c1ccc(C(=O)N2CCOCC2)cc1` [Example 52, N—((S)-2-Hydroxy-2-((S)-1,2,3,4-tetrahydroisoquinolin-3-yl)ethyl)-4-(morpholine-4-carbonyl)benzamide hydrochloride], it took 3330 nM to reach half-maximal inhibition (IC50).

`O=C(NC[C@@H](O)[C@H]1Cc2ccccc2CN1)c1ccc(C(=O)N2CCOCC2)cc1` [Example 54, N—((R)-2-Hydroxy-2-((R)-1,2,3,4-tetrahydroisoquinolin-3-yl)ethyl)-4-(morpholine-4-carbonyl)benzamide hydrochloride] had a half-inhibitory concentration (IC50) of 82100 nM.

Molecule `O=C(NCc1ccccn1)c1ccc(C(=O)NC[C@@H](O)[C@@H]2Cc3ccccc3CN2)cc1` [Example 56, N^1-((R)-2-Hydroxy-2-((S)-1,2,3,4-tetrahydroisoquinolin-3-yl)ethyl)-N^4-(pyridin-2-ylmethly)terephthalamide] displayed an IC50 of 383 nM.

The molecule `O=C(NC[C@@H](O)[C@@H]1Cc2ccccc2CN1)c1ccc(OCC(F)(F)F)nc1` [Example 57, N-((R)-2-Hydroxy-2-((S)-1,2,3,4-tetrahydroisoquinolin-3-yl)ethyl)-6-(2,2,2-trifluoroethoxy)nicotinamide] had an IC50 of 594 nM.

`O=C(NC[C@@H](O)[C@@H]1Cc2ccccc2CN1)c1ccc(OCC2CC2)nc1` [Example 58, 6-(Cyclopropylmethoxy)-N-((R)-2-hydroxy-2-((S)-1,2,3,4-tetrahydroisoquinolin-3-yl)ethyl)nicotinamide] came in with an IC50 of 657 nM.

`CC(C)Oc1ccc(C(=O)NC[C@@H](O)[C@@H]2Cc3ccccc3CN2)cn1` [Example 59, N-((R)-2-Hydroxy-2-((S)-1,2,3,4-tetrahydroisoquinolin-3-yl)ethyl)-6-isopropoxynicotinamide]: the concentration for half-maximal inhibition (IC50) turned out to be 593 nM.

As for `COC(=O)N1CCC(Oc2cccc(C(=O)NC[C@@H](O)[C@@H]3Cc4ccccc4CN3)c2)CC1` [Example 60, Methyl 4-(3-(((R)-2-hydroxy-2-((S)-1,2,3,4-tetrahydroisoquinolin-3-yl)ethyl)carbamoyl)phenoxy)piperidine-1-carboxylate], the IC50 stood at 3300 nM.

`CC(C)OC(=O)N1CCC(Oc2cc(C(=O)NC[C@@H](O)[C@@H]3Cc4ccccc4CN3)ccn2)CC1` [Example 61, Isopropyl 4-((4-(((R)-2-hydroxy-2-((S)-1,2,3,4-tetrahydroisoquinolin-3-yl)ethyl)carbamoyl)pyridin-2-yl)oxy)piperidine-1-carboxylate] yielded an IC50 of 104 nM.

`CC(C)COC(=O)N1CCC(Oc2cc(C(=O)NC[C@@H](O)[C@@H]3Cc4ccccc4CN3)ccn2)CC1` [Example 62, Isobutyl 4-((4-(((R)-2-hydroxy-2-((S)-1,2,3,4-tetrahydroisoquinolin-3-yl)ethyl)carbamoyl)pyridin-2-yl)oxy)piperidine-1-carboxylate]: half-maximal inhibition (IC50) was put at 102 nM.

`O=C(NC[C@@H](O)[C@@H]1Cc2ccccc2CN1)c1ccnc(OCC(F)(F)F)c1` [Example 63, N-((R)-2-hydroxy-2-((S)-1,2,3,4-tetrahydroisoquinolin-3-yl)ethyl)-2-(2,2,2-trifluoroethoxy)isonicotinamide] returned an IC50 of 245 nM.

Regarding `CC(C)Oc1cc(C(=O)NC[C@@H](O)[C@@H]2Cc3ccccc3CN2)ccn1` [Example 64, N-((R)-2-hydroxy-2-((S)-1,2,3,4-tetrahydroisoquinolin-3-yl)ethyl)-2-isopropoxyisonicotinamide], the 50% inhibitory concentration (IC50) came to 261 nM.

On to `NC(=O)COc1ccccc1C(=O)NC[C@@H](O)[C@@H]1Cc2ccccc2CN1` [Example 65, 2-(2-Amino-2-oxoethoxy)-N-((R)-2-hydroxy-2-((S)-1,2,3,4-tetrahydroisoquinolin-3-yl)ethyl)benzamide], for which the half-maximal inhibitory concentration (IC50) was 2290 nM.

Molecule `CC(=O)N1CCN(C(=O)c2ccc(C(=O)NC[C@@H](O)[C@@H]3Cc4ccccc4CN3)cc2)CC1` [Example 66, 4-(4-Acetylpiperazine-1-carbonyl)-N-((R)-2-hydroxy-2-((S)-1,2,3,4-tetrahydroisoquinolin-3-yl)ethyl)benzamide] yielded a 50% inhibitory concentration (IC50) of 329 nM.

On to `COC(=O)N1CCN(C(=O)c2ccc(C(=O)NC[C@@H](O)[C@@H]3Cc4ccccc4CN3)cc2)CC1` [Example 67, Methyl 4-(4-(((R)-2-hydroxy-2-((S)-1,2,3,4-tetrahydroisoquinolin-3-yl)ethyl)carbamoyl)benzoyl)piperazine-1-carboxylate], for which the half-inhibitory concentration (IC50) turned out to be 307 nM.

As for `CC(=O)N1CCC(Oc2ccccc2C(=O)NC[C@@H](O)[C@@H]2Cc3ccccc3CN2)CC1` [Example 68, 2-((1-Acetylpiperidin-4-yl)oxy)-N-((R)-2-hydroxy-2-((S)-1,2,3,4-tetrahydroisoquinolin-3-yl)ethyl)benzamide], 2260 nM corresponded to half-maximal inhibition (IC50).

For the molecule `CCOc1nc(C(=O)N2C3CCC2COC3)ccc1C(=O)NC[C@@H](O)[C@@H]1Cc2ccccc2CN1` [Example 70, 6-(3-Oxa-8-azabicyclo[3.2.1]octane-8-carbonyl)-2-ethoxy-N-((R)-2-hydroxy-2-((S)-1,2,3,4-tetrahydroisoquinolin-3-yl)ethyl)nicotinamide], the midpoint of inhibition, the IC50, lay at 121 nM.

Molecule `COc1cc(C(=O)NC[C@@H](O)[C@@H]2Cc3ccccc3CN2)ccn1` [Example 71, N-((R)-2-Hydroxy-2-((S)-1,2,3,4-tetrahydroisoquinolin-3-yl)ethyl)-2-methoxyisonicotinamide dihydrochloride] yielded a 50% inhibitory concentration (IC50) of 939 nM.

The molecule `O=C(NC[C@@H](O)[C@@H]1Cc2ccccc2CN1)c1ccc(CC(=O)N2CCCCC2)nc1` [Example 72, N-((R)-2-Hydroxy-2-((S)-1,2,3,4-tetrahydroisoquinolin-3-yl)ethyl)-6-(2-oxo-2-(piperidin-1-yl)ethyl)nicotinamide dihydrochloride] registered a 50% inhibitory concentration (IC50) of 585 nM.

For `O=C(NC[C@@H](O)[C@@H]1Cc2ccccc2CN1)c1ccnc(C2CCOCC2)c1` [Example 73, N-((R)-2-Hydroxy-2-((S)-1,2,3,4-tetrahydroisoquinolin-3-yl)ethyl)-2-(tetrahydro-2H-pyran-4-yl)isonicotinamide dihydrochloride], the IC50 worked out at 2270 nM.

Turning to `O=C(NC[C@@H](O)[C@@H]1Cc2ccccc2CN1)c1cc(OC2CCOCC2)ncc1Cl` [Example 75, 5-Chloro-N-((R)-2-hydroxy-2-((S)-1,2,3,4-tetrahydroisoquinolin-3-yl)ethyl)-2-((tetrahydro-2H-pyran-4-yl)oxy)isonicotinamide dihydrochloride], inhibition was half-maximal at 1200 nM (IC50).
